The values that follow come from US5493007A, “Platelet aggregation inhibitors having high specificity for GPIIBIIIA” (Genentech, Inc., priority 1994, dated 1996).

The target of data set [1] is T1, Vitronectin Receptor (αvβ3) (Homo sapiens, UniProt P05106+P06756).
T1 construct: Human vitronection receptor (VnR) is purified from human placenta; from tissue; host or cells: human placenta
The data set is described as follows: Human Vitronectin-Vitronectin Receptor (αvβ3) ELISA Assay. It is filed as binding. To be noted: purified human αvβ3, vitronectin-coated plates; read-out: ELISA IC50 Vitronectin VnR. From the text:
Human vitronectin (Vn) is isolated from human plasma and purified by affinity chromatography by the method of Yatohgo et. al., (Cell Structure and Function 13:281-292 [1988]).
Human vitronection receptor (VnR) is purified from human placenta by the method of Pytela et al., (Methods Enzymol., 144:475 [1987]). Alternatively the αvβ3 receptor can be purified from some cell lines (e.g., human embryonic kidney 293 cells) transfected with DNA sequences for both the αv and β3 subunits. The subunits are purified by employing octylglucoside extraction followed by Con-A, Heparin-Sepharose, and S-300 Chromatography.
Anti-GP IIb IIIa monoclonal antibodies specific for human GP IIIa are prepared by the method of Newman et al. (Blood, 65:227-232 [1985]), or a similar procedure. This mouse Mab is specific for the β3 subunit of the vitronectin receptor.
Rabbit Fab 2 anti-mouse Fc fragment horse radish peroxidase conjugate (anti-MuFc HRP) is obtained from PelFreeze (cat. no. 715305-1).
Maxisorp microtiter plates are coated with 2 μg/ml human vitronectin dissolved in PBS ([…]) and stored overnight at 4° C. The plates are washed two times with PBS-0.05% Tween-20 (wash buffer) and blocked by incubating with about 150 μl/well of assay buffer (1%, BSA [RIA grade or better] in 50 mM Tris-HCl, 100 mM NaCl, 1 mM MgCl2, CaCl2, MnCl2 pH 7.4) for 60 minutes. Dilutions of standards are prepared and putative inhibitors (Table 3) are dissolved in assay buffer. The blocked plates are emptied and 25 μl/well of inhibitor or standard solution is added to each well. Twenty-five μl of a 30 μg/ml solution of purified αvβ3 in assay buffer is pipetted into the coated plate. The final concentration of receptor in the assay well is about 15 μg/ml. The plate is incubated on a shaker for 60 minutes. Meanwhile, for each microtite plate, 6 ml buffer solution containing 1.5 μg/ml of mouse monoclonal antibody specific for β3 is prepared. To this solution is added μl of the secondary antibody, which is anti-mouse-Fc-HRP antibody conjugate. For example, for one plate, prepare 6 ml of a 1.5 μg/ml mouse Mab solution to which is added 1 μl of anti-mouse-Fc-HRP antibody stock, (this represents a 1:6000 dilution of the antibody - HRP conjugate). This mixture is allowed to incubate during the receptor-inhibitor incubation. The assay plates are washed 4 times with PBS-Tween and 50 μl/well of the antibody mixture is then pipetted into the plate for a 60 minute incubation. The plate is washed 4 times and the color reaction is developed with 50 μl/well of 0.67 mg/ml o-phenyldiamine in PBS containing 0.012% H2 O2. Alternatively, 16 mM citric acid, 50 mM Na2 PO4 at pH 5.0 can be used as a substrate buffer. The reaction is stopped with 50 μl/well 1M H2 SO4. The plates are read at 492-405 nm and the data analyzed by four-parameter fit.
On the technique in general: An ELISA detects its analyte on a solid surface through an enzyme-linked reagent.

The test system of data set [2] is New Zealand White rabbits. Put plainly: Rabbit cutaneous bleeding time (CBT). Conditions: for Rabbit BT Ratio: Example 1, at the % P.A. inhibition given.
Method: Unanesthetized male New Zealand White rabbits (2.5-3.5 kg) are placed in a standard rabbit restrainer. Ears are shaved and a 20 G Teflon catheter with flowswitch (Viggo) is placed in the medial artery, flushed with saline and locked with 1 ml of heparinized saline (10 m/ml). A 22 G catheter (Abbott) fitted with an injection cap (Medex) is placed in the marginal vein of the same ear. Saline or a GP IIb IIIa receptor antagonist, at a concentration of 1 to 3 mg/ml, is infused via the venous catheter. At time 0, 41% of the dose is given as a bolus over 2 minutes. The remainder is continuously infused over the following 60 minutes. Blood samples (3.2 ml) are collected into syringes without needles via the arterial catheter at -10, -5, 10, 45, and 60 minutes. The first 0.5 ml is discarded and the following 2.7 ml is collected directly into a syringe containing 0.3 ml of 3.8% sodium citrate. The sample is divided into 1.5 ml aliquots and centrifuged at room temperature for 5 seconds at 12,000 G. The resulting platelet rich plasma (PRP) is used to measure ex-vivo platelet aggregation (XPA). At -10 and 60 minutes an additional 1 cml sample is drawn for an automated blood count (Baker instruments). Catheters are flushed and locked after every sample.
CBT is measured at -10, -5, 10, and 45 minutes on the opposite ear, using an automated incision-making instrument (Surgicutt®, ITD). An incision (5mm×1 mm deep) is made on the dorsal surface of the ear at sites not supplied by major blood vessels. Blood is blotted away with absorbent paper placed near the incision site, every 2 to 15 seconds, to a maximum of 15 minutes. Cessation of bleeding is defined as no blood forming at the incision site for 15 seconds. The range of duplicate CBT in 40 normal rabbits was 0.88 to 3.38 minutes.
The target in a further data set is Fibronectin Receptor (Homo sapiens, UniProt P05556+P08648). Put plainly: Human Fibronectin-Fibronectin Receptor ELISA Assay. Format: binding. More on the design: octylglucoside (OG) extracted human placenta; from tissue; host or cells: human placenta. Conditions: human placenta fibronectin receptor, fibronectin-coated plates; read-out: ELISA IC50 Fibronectin FnR. The protocol: Fibronectin receptor is purified according to the procedures of Pytela et al., (Methods Enzymol. 144:475 […]). Briefly, fibronectin receptor is purified employing an Arg-Gly-Asp affinity chromatography from (100 mM) octylglucoside (OG) extracted human placenta. The OG extract is filtered over Sepharose 6B GRGDSPK column. The column is washed three times with three column volumes of Tris-buffered saline (TBS) TBS, 1 mM CaCl2, and 25 mM OG. The receptor is eluted with TBS, 20 mM EDTA, and 25 mM Octyl thioglucoside, and is stored in 1 mM CaCl2, 1 mM MgCl2, at -80° C.
Microtiter plates are coated with 110 μl human fibronectin (at 2 μg/ml) in TBS. Plates are washed three times with TBS containing 0.05% Tween 20. Test inhibitors are then added after washing in 10 microliter aliquots. The fibronectin receptor is added in 2-fold serial dilutions with TBS containing 20 mM octyl glucoside and 2 mM MnCl2. Plates are incubated three hours at room temperature, and washed with 200 μl TBS-Tween 20 buffer. 100 μl of affinity-purffied rabbit anti-human fibronectin receptor antibody is added to the wells and the plates are incubated two hours, washed twice with TBS-Tween and once with distilled water. Affinity-purified goat anti-rabbit IgG conjugated to horseradish peroxidase (100 μl) is added to each well followed by incubation for 60 minutes at room temperature. Plates are again washed twice with TBS-Tween and distilled water. 100 μl of substrate mixture (10 mg o-phenylenediamine in 25 ml 0.1M citrate-phosphate buffer, pH 5.0 6 μ30% H2 O2) is added to the plates and allowed to develop. The development process is stopped by adding 50 μl of 4N H2 SO4 to each well and read at […].

Several values for one entry are separate records, joined by “and”; a condition that tells them apart may be missing. Equal values may be shown once. *1 amine or outer side, *2 acyl side, *3 side chain or, on linkers, in order; H or OH if unused. Where a SMILES comes first, the peptide text is derived from it. Bridges are numbered along the chain shown (N, C = ends). [ ]: non-standard residue; d: D form. The star is where a group is joined. Ethylenediamine = C(CN[*:2])N[*:1]; Aad = N[C@@H](CCCC(=O)O)C(=O)O; Pen = CC(C)(S)[C@H](N)C(=O)O; NH(CH2)5NH2 = NCCCCCN*; NH(CH2)3NH2 = NCCCN*

T1 sequence (P06756 31-889 limits assumed): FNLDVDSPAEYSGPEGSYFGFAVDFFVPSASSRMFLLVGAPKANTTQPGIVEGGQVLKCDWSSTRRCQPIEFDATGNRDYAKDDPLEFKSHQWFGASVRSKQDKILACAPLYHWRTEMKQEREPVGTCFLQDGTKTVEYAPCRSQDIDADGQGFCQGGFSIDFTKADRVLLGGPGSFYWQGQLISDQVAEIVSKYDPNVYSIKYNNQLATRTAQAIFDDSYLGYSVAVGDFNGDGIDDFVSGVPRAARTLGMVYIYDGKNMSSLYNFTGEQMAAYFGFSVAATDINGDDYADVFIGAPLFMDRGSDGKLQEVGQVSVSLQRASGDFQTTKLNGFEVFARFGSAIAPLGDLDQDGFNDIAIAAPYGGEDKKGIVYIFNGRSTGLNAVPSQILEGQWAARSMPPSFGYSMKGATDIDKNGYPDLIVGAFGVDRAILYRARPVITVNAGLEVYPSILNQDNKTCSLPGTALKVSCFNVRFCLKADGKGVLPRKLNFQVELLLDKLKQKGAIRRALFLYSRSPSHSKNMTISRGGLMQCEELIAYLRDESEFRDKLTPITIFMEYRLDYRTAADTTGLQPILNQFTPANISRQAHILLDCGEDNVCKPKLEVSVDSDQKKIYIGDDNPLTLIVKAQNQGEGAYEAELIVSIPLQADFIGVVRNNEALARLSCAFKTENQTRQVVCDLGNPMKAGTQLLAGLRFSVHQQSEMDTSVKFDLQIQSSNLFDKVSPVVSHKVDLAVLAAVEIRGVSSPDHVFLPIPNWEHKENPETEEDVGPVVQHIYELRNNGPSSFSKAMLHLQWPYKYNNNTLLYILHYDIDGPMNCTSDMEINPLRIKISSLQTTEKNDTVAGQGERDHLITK
T1 sequence (P06756 891-1048 partner limits assumed): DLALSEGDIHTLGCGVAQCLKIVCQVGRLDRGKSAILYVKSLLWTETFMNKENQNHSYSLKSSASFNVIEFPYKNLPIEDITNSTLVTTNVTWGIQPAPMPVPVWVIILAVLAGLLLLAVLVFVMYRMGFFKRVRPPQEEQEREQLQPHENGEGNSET
T1 sequence (P05106 27-788): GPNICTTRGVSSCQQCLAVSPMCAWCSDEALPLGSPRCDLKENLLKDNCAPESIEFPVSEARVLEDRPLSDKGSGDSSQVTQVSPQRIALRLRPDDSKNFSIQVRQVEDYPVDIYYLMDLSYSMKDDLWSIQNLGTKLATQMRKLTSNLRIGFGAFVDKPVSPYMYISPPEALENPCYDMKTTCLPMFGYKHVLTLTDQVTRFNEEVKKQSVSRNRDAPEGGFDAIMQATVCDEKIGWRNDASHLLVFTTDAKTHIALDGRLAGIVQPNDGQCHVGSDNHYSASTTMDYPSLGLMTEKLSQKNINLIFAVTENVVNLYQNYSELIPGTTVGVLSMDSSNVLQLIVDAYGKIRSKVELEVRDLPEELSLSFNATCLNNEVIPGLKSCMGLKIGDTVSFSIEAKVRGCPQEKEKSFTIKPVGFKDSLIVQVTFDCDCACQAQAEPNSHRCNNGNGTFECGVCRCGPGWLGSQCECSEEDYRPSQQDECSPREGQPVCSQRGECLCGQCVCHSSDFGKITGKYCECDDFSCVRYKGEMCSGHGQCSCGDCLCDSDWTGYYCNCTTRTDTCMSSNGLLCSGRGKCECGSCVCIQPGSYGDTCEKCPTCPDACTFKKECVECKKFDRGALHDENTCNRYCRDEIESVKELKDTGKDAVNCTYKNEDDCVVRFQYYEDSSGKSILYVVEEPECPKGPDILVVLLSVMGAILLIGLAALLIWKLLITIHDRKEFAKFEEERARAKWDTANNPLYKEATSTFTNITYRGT
Chain of Fibronectin Receptor (P08648 42-894 limits assumed): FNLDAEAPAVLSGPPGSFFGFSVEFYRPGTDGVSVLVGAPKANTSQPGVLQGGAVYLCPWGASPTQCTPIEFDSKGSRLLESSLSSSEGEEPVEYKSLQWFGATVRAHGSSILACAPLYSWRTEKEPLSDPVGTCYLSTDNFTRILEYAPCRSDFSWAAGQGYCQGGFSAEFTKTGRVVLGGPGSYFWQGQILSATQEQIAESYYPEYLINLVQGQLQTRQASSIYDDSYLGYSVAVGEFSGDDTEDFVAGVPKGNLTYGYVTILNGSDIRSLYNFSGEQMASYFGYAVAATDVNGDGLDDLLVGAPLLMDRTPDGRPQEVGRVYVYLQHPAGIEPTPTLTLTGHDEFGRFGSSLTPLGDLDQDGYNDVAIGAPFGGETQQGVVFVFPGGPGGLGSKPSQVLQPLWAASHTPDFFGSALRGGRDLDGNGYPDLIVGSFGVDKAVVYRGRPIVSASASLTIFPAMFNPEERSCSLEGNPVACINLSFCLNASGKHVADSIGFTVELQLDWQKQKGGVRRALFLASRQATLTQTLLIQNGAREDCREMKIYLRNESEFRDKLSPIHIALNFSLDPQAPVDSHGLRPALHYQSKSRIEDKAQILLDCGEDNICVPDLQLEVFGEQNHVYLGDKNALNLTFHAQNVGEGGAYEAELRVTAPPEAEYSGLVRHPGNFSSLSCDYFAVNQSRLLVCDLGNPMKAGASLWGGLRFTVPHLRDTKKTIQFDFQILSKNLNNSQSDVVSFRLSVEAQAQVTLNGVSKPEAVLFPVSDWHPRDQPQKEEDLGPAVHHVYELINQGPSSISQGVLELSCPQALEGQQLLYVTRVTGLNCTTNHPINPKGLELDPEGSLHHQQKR
Chain of Fibronectin Receptor (P08648 895-1049 partner limits assumed): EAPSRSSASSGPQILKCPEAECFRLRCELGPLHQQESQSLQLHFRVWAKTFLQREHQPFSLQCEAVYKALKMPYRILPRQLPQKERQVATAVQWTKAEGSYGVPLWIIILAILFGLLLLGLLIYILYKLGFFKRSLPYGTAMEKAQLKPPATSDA
Chain of Fibronectin Receptor (P05556 21-798): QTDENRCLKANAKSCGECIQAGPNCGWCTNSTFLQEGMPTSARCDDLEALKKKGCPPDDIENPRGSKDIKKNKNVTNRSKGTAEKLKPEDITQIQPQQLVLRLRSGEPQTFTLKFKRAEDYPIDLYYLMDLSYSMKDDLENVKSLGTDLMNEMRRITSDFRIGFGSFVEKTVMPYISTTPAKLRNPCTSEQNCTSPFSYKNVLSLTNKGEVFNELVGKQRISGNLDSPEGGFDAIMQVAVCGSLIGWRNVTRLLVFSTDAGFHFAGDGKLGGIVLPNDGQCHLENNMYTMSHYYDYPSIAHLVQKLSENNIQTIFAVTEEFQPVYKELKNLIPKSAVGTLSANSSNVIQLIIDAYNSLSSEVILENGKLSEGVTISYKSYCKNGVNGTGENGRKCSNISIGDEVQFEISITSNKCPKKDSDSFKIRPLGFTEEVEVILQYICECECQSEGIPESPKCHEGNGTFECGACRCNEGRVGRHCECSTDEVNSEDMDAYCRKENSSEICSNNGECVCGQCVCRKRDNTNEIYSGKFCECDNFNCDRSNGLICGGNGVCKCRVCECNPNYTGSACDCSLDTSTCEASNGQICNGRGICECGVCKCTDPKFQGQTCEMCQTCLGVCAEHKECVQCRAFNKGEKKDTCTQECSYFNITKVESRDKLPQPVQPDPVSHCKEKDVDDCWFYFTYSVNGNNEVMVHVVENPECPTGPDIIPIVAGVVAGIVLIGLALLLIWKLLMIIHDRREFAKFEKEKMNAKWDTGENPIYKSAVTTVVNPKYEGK

On to `CC1(C)SCC(=O)N[C@H](Cc2ccc(O)cc2)C(=O)N[C@@H](CCCCN)C(=O)NCC(=O)N[C@@H](CC(=O)O)C(=O)N[C@@H]1C(=O)N[C@@H](CCCCN)C(N)=O` [7/17, cyclo-S-acetyl-dTyr--Lys--Gly--Asp--Pen--Lys--NH2] ({CH2CO}-[dY]KGD[Pen]K-NH2; thioether N-5), for which the IC50 (in general, the concentration at which inhibition is half-maximal) in data set [1] was 100000 nM; at Fibronectin Receptor, above 10000 nM. Further, the “cutaneous bleeding time, result in words” value in data set [2] is recorded as “without substantial increased cutaneous bleeding time”. In data set [2] (rabbit), the “Rabbit BT Ratio” value is 1.13 and 1.0.
`N=C(N)NCCC[C@@H]1NC(=O)[C@@H](Cc2ccc(O)cc2)NC(=O)CSC[C@@H](C(=O)O)NC(=O)[C@H](CC(=O)O)NC(=O)CNC1=O` [7/46, cyclo-S-acetyl-dTyr--Arg--Gly--Asp--Cys--OH] ({CH2CO}-[dY]RGDC-OH; thioether N-5): the IC50 stood at 5 nM in data set [1] and 3390 nM at Fibronectin Receptor. For the same compound, the “cutaneous bleeding time, result in words” value in data set [2] was “prolongation of bleeding time in vivo in both the rabbit and dog model”. In addition, in data set [2] (rabbit, dose sufficient to achieve about 97% inhibition of platelet aggregation), the “increase of cutaneous bleeding time compared to the undosed animal” value was found to be 8.0 times.
`N=C(N)NCCC[C@@H]1NC(=O)[C@@H](Cc2ccc(O)cc2)NC(=O)CSC[C@@H](C(=O)NCCCCCN)NC(=O)[C@H](CC(=O)O)NC(=O)CNC1=O` [8/13, cyclo-S-acetyl-dTyr--Arg--Gly--Asp--Cys--NH--X (X = pentylamine)] ({CH2CO}-[dY]RGDC-{NH(CH2)5NH2}; thioether N-5): the results for the concentration for half-maximal inhibition (IC50) (in data set [1]; at Fibronectin Receptor) were 32 nM and 473 nM, respectively. Also, in data set [2] (rabbit), the “Rabbit BT Ratio” value was determined as 1.13.
For the compound `N=C(N)NCCC[C@@H]1NC(=O)[C@@H](Cc2ccc(O)cc2)NC(=O)CSC[C@@H](C(=O)NCCCN)NC(=O)[C@H](CC(=O)O)NC(=O)CNC1=O` [8/22, cyclo-S-acetyl-dTyr--Arg--Gly--Asp--Cys--NH--X (X = propyl amine)] ({CH2CO}-[dY]RGDC-{NH(CH2)3NH2}; thioether N-5), the figures for the half-inhibitory concentration (IC50) (in data set [1]; at Fibronectin Receptor) were 36 nM and 176 nM, respectively. The “Rabbit BT Ratio” value in data set [2] (rabbit) came out at 1.27.
In the case of `N=C(N)NCCC[C@@H]1NC(=O)[C@@H](Cc2ccc(O)cc2)NC(=O)CSC[C@@H](C(=O)NCCN)NC(=O)[C@H](CC(=O)O)NC(=O)CNC1=O` [8/23, cyclo-S-acetyl-dTyr--Arg--Gly--Asp--Cys--NH--X (X = ethyl amine)] ({CH2CO}-[dY]RGDC-Ethylenediamine; thioether N-5), the figures for the IC50 (in data set [1]; at Fibronectin Receptor) were 35 nM and 61 nM, respectively. Further, the “Rabbit BT Ratio” value in data set [2] (rabbit) is listed as 0.81.
For the compound `N=C(N)NCCC[C@@H]1NC(=O)[C@@H](Cc2ccc(O)cc2)NC(=O)CCC[C@@H](C(=O)N[C@@H](CCCCN)C(N)=O)NC(=O)[C@H](CC(=O)O)NC(=O)CNC1=O` [10/20, cyclo(1-5)dTyr--Arg--Gly--Asp--L-α-aminoadipic acid-Lys--NH2] ([dY]RGD[Aad]K-NH2; lactam N-5), the IC50 in data set [1] was determined as 20 nM; at Fibronectin Receptor, 2310 nM. Besides, in data set [2] (rabbit), the “Rabbit BT Ratio” value was 2,0.
